Experiments:
Test in all cases: area under dose-response curve of % growth inhibition (log2 RLU vs DMSO / staurosporine), 1e-11 to 1e-4 M (% x log10 M); higher = more growth inhibition
DIPGX29 = test system: DIPGX29 (H3.3 K27M diffuse intrinsic pontine glioma line)
Summary of the method: (§1)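 Patient-derived pHGG/DIPG cell lines and astrocyte controls were grown on 1% Geltrex-coated 384-well plates and exposed to a 10-point threefold dilution series (mean top concentration 35 μM), in triplicate. Exposure was 7 days (iAstro 3 days) at 37 °C, 5% CO2. CellTiter-Glo luminescence was log2-transformed and normalised per plate to % activity between solvent and positive controls. Area under the curve was taken by trapezoid rule from the fitted log-logistic curve, or from a smoothing spline when the sigmoid fit failed.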

HGGX39 = test system: HGGX39 (paediatric high-grade glioma line)
Summary of the method: as §1

DIPGX37 = test system: DIPGX37 (H3.3 K27M diffuse intrinsic pontine glioma line)
Summary of the method: as §1

HGGX6 = test system: HGGX6 (H3.3 G34R paediatric high-grade glioma line)
Summary of the method: as §1

| SMILES | area under dose-response curve (DIPGX29) | area under dose-response curve (HGGX39) | area under dose-response curve (DIPGX37) | area under dose-response curve (HGGX6) |
| --- | --- | --- | --- | --- |
| Nc1ncnc2c1c(COc1cccc(Cl)c1)nn2C1CCOCC1 | 10 | 23.5 | 32.2 | 14.3 |
| O=C(O)c1ccc(CN2CCC(CN[C@@H]3C[C@H]3c3ccccc3)CC2)cc1 | 1.9 | 2.17 | 20.1 | 0.903 |
| CN(N=O)C(=O)N[C@H]1C(O)O[C@H](CO)[C@@H](O)[C@@H]1O (mixture of isomers) [STREPTOZOSIN] | 11 | 7.25 | 8.39 | 5.51 |
| Nc1ncn([C@@H]2O[C@H](CO)[C@@H](O)[C@H]2O)c(=O)n1 [5-AZACYTIDINE] | 12.5 | 17.6 | 18.2 | 12.1 |
| Nc1nc(=O)n([C@H]2C[C@H](O)[C@@H](CO)O2)cc1F [5-FLUORODEOXYCYTIDINE] | 42.2 | 39.7 | 10.7 | 28.8 |
| O=c1[nH]cc(F)c(=O)[nH]1 [5-FLUOROURACIL] | 17.6 | 10.6 | 4.4 | 25.2 |
| COc1cc2c(cc1OCCCN1CCCC1)N=C(N)C21CCC1 [A-366] | 9.92 | 9.97 | 19 | 19.9 |
| CC(=O)O[C@H]1CC[C@@]2(C)C(=CC[C@@H]3[C@@H]2CC[C@]2(C)C(c4cccnc4)=CC[C@@H]32)C1 [ABIRATERONE ACETATE] | 0 | 6.95 | 20.1 | 0 |
| CCC1(c2ccc(N)cc2)CCC(=O)NC1=O (stereo unspecified) [AMINOGLUTETHIMIDE] | 7.58 | 3.33 | 4.75 | 14.3 |
| CC(C)(C#N)c1cc(Cn2cncn2)cc(C(C)(C)C#N)c1 [ANASTROZOLE] | 7.52 | 1.48 | 5.71 | 1.46 |
| CO[C@H]1O[C@@H]2O[C@@]3(C)CC[C@H]4[C@H](C)CC[C@@H]([C@H]1C)[C@@]24OO3 [ARTEMETHER] | 5.53 | 14.4 | 3.95 | 17.6 |
| CCN(C(=O)CO)[C@H]1CN(/C(=N\C#N)Nc2cccc(OC(F)F)c2)N=C1c1ccc(Cl)c(Cl)c1 [BAY598] | 18.1 | 10.8 | 16.3 | 8.24 |
| Cn1cc(CCn2cnc(-c3cnn(C)c3)c2-c2ccc(C#N)cc2)cn1 [BAZ2-ICR] | 8.96 | 16.5 | 22.9 | 14.6 |
| C[C@H]1C[C@H]2[C@@H]3CCC4=CC(=O)C=C[C@]4(C)[C@@]3(F)[C@@H](O)C[C@]2(C)[C@@]1(O)C(=O)CO [BETAMETHASONE] | 23.1 | 11.8 | 10.5 | 16.4 |
| C=C(c1ccc(C(=O)O)cc1)c1cc2c(cc1C)C(C)(C)CCC2(C)C [BEXAROTENE] | 21.8 | 28.4 | 6.14 | 13.2 |
| COc1cc(-c2cn(C)c(=O)c3cnccc23)c(OC)cc1CN(C)C [BI-9564] | 12.6 | 5.33 | 11.6 | 3.53 |
| C/C(=C\C(=O)Nc1ccccc1C(=O)O)c1ccc2ccccc2c1 [BIBR-1532] | 0 | 0 | 20.5 | 8.79 |
| CC(=O)Oc1ccc(C(c2ccc(OC(C)=O)cc2)c2ccccn2)cc1 [BISACODYL] | 2.56 | 27.8 | 11.1 | 10.4 |
| O=c1[nH]c(=O)n([C@H]2C[C@H](O)[C@@H](CO)O2)cc1/C=C/Br [BRIVUDINE] | 6.05 | 1.13 | 9.7 | 2.8 |
| CCCC1O[C@@H]2C[C@H]3[C@@H]4CCC5=CC(=O)C=C[C@]5(C)[C@H]4[C@@H](O)C[C@]3(C)[C@]2(C(=O)CO)O1 (stereo partly specified) [BUDESONIDE] | 35.7 | 11.8 | 19.3 | 6.8 |
| CCCCCCNC(=O)n1cc(F)c(=O)[nH]c1=O [CARMOFUR] | 20.1 | 20.2 | 30.3 | 15.3 |
| O=C(O)CCCc1ccc(N(CCCl)CCCl)cc1 [CHLORAMBUCIL] | 25.8 | 20.8 | 15.9 | 18.3 |
| Nc1nc(Cl)nc2c1ncn2[C@H]1C[C@H](O)[C@@H](CO)O1 [CLADRIBINE] | 54.8 | 40.8 | 32.4 | 39.3 |
| Nc1ccn([C@@H]2O[C@H](CO)[C@@H](O)[C@@H]2O)c(=O)n1 [CYTARABINE] | 42.9 | 30.6 | 23.3 | 15.6 |
| CN(C)/N=N/c1[nH]cnc1C(N)=O [DACARBAZINE] | 6.29 | 19.3 | 17.2 | 16.5 |

| SMILES | area under dose-response curve (DIPGX29) | area under dose-response curve (HGGX39) | area under dose-response curve (DIPGX37) | area under dose-response curve (HGGX6) |
| --- | --- | --- | --- | --- |
| Nc1ncn([C@H]2C[C@H](O)[C@@H](CO)O2)c(=O)n1 [DECITABINE] | 4.32 | 7.33 | 9.77 | 3.81 |
| CC(=O)O[C@@]12CO[C@@H]1C[C@H](O)[C@@]1(C)C(=O)[C@H](O)C3=C(C)[C@@H](OC(=O)[C@H](O)[C@@H](NC(=O)OC(C)(C)C)c4ccccc4)C[C@@](O)([C@@H](OC(=O)c4ccccc4)[C@H]21)C3(C)C [DOCETAXEL] | 55.8 | 120 | 56 | 86.7 |
| COc1cc([C@@H]2c3cc4c(cc3[C@@H](O[C@@H]3O[C@@H]5CO[C@@H](C)O[C@H]5[C@H](O)[C@H]3O)[C@H]3COC(=O)[C@H]23)OCO4)cc(OC)c1O [ETOPOSIDE] | 39.6 | 33.1 | 14.2 | 25.4 |
| Cc1cc(C#N)cc(C)c1Oc1nc(Nc2ccc(C#N)cc2)nc(N)c1Br [ETRAVIRINE] | 24.2 | 18.9 | 10.8 | 9.91 |
| CS(=O)(=O)c1ccc([C@@H](O)[C@@H](CF)NC(=O)C(Cl)Cl)cc1 [FLORFENICOL] | 11.3 | 15.6 | 10.6 | 4.4 |
| Nc1nc(F)nc2c1ncn2[C@@H]1O[C@H](COP(=O)(O)O)[C@@H](O)[C@@H]1O [FLUDARABINE PHOSPHATE] | 32.1 | 10.3 | 39.7 | 6.46 |
| N[C@H](CCC(=O)N[C@@H](Cc1c[nH]c2ccccc12)C(=O)O)C(=O)O [GOLOTIMOD] | 8.23 | 0.705 | 15.2 | 5.25 |
| CCCOc1ccn2c(C(C)=O)cc(-c3ccccc3S(C)(=O)=O)c2c1 [GSK2801] | 19.1 | 10.4 | 8.52 | 21.4 |
| COc1ccccc1C(=O)Nc1cc2c(cc1N1CCCCC1)n(C)c(=O)n2C [GSK-5959] | 8.32 | 41.9 | 76.9 | 45.8 |
| c1ccc([C@@H]2C[C@H]2NC2CCNCC2)cc1 [GSK-LSD1] | 0 | 0 | 5.85 | 0 |
| Nc1ncn([C@H]2C[C@H](OP(=O)(O)OC[C@H]3O[C@@H](n4cnc5c(=O)[nH]c(N)nc54)C[C@@H]3O)[C@@H](CO)O2)c(=O)n1 [GUADECITABINE] | 0 | 0 | 16.4 | 0 |
| CCN(CCO)CCCC(C)Nc1ccnc2cc(Cl)ccc12 (stereo unspecified) [HYDROXYCHLOROQUINE] | 5.15 | 0 | 8.17 | 1.95 |
| CCC(=O)N1CCOc2c(cc(-c3ccc(OC)c(OC)c3)cc2OC[C@H]2CCCN(C)C2)C1 [I-CBP112] | 14.1 | 2.35 | 18 | 16.4 |
| COc1cc(C(C)=O)ccc1OCCCN1CCC(c2noc3cc(F)ccc23)CC1 [ILOPERIDONE] | 15.1 | 10.3 | 13.2 | 5.98 |
| O=C(O)c1ccc(O)c2ncccc12 [IOX1] | 3.7 | 2.63 | 9.36 | 5.89 |
| O=C(O)CNC(=O)c1c(O)c2ccccc2n(Cc2ccccc2)c1=O [IOX2] | 9.33 | 12.7 | 6.07 | 12.6 |
| CCOC(=O)c1ccnc(CNCC(=O)N(CC)CCN(C)C)c1 [KDM5-C70] | 9.21 | 7.74 | 3.66 | 2.7 |
| Cc1oncc1C(=O)Nc1ccc(C(F)(F)F)cc1 [LEFLUNOMIDE] | 5.84 | 4.82 | 2.94 | 2.22 |
| CC(N[C@H]1C[C@@H]1c1ccccc1)c1ccc2c(c1)OCCO2 (stereo partly specified) [LSD1-C76] | 6.56 | 12 | 24 | 7.75 |
| CN(Cc1cnc2nc(N)nc(N)c2n1)c1ccc(C(=O)N[C@@H](CCC(=O)O)C(=O)O)cc1 [METHOTREXATE] | 44.1 | 39.9 | 30.5 | 58.8 |
| Clc1ccc(C(c2ccccc2Cl)C(Cl)Cl)cc1 (stereo unspecified) [MITOTANE] | 12.9 | 8.7 | 16.1 | 12.5 |
| C[C@@H]1C[C@H]2[C@@H]3CCC4=CC(=O)C=C[C@]4(C)[C@@]3(Cl)[C@@H](O)C[C@]2(C)[C@@]1(OC(=O)c1ccco1)C(=O)CCl [MOMETASONE FUROATE] | 42.1 | 20.8 | 40.5 | 8.37 |
| CC(C)Oc1ccc(-c2c[nH]cc2CN(C)CCN)cc1 [MS023] | 10.9 | 8.58 | 10.6 | 14.7 |
| CNCCN1CCC(OCc2ccccc2)CC1 [MS049] | 19.1 | 9.22 | 10.6 | 11.9 |

Source: the supplement of paper PMC8253809
